Assay results taken from the supplement of paper PMC11061612.

How the values were obtained:
[1] = system: KYM-1 (Rhabdomyosarcoma); test: Bliss excess, mean over the matrix (fraction); higher = more synergy
Summary of the method: (§1)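 Cell lines in DMEM/F12 or RPMI with 10% FBS were plated in 1536-well plates, held 24 hours at 37°C, 5% CO2, then given two-drug dose matrices for 72 hours (DMSO typically 0.2%). Viability was read by CellTiter-Glo 2.0 luminescence and scaled as inhibition from 0 (vehicle wells) to 1 (blank wells). Combination Emax is the second-highest inhibition in the matrix; Bliss excess is observed combination effect minus expected EA + EB − EA·EB, EA and EB being single-agent effects.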

[2] = system: HTC-C3 (Thyroid Gland Carcinoma); test: as above
Summary of the method: as §1

[3] = system: RL95-2 (Endometrial Carcinoma); test: as above
Summary of the method: as §1

[4] = system: JHH-1 (Hepatocellular Carcinoma); test: as above
Summary of the method: as §1

[5] = system: OCI-AML5 (Acute Myeloid Leukemia); test: as above
Summary of the method: as §1

[6] = system: NCI-H810 (Non-Small Cell Lung Carcinoma); test: as above
Summary of the method: as §1

[7] = system: SJRH30 (Rhabdomyosarcoma); test: as above
Summary of the method: as §1

[8] = system: CHL-1 (Melanoma); test: as above
Summary of the method: as §1

[9] = system: 786-0 (Kidney Carcinoma); test: as above
Summary of the method: as §1

[10] = system: KYSE-70 (Esophageal Squamous Cell Carcinoma); test: as above
Summary of the method: as §1

[11] = system: RPMI-8866 (Chronic Myelogenous Leukemia); test: as above
Summary of the method: as §1

[12] = system: AsPC-1 (Pancreatic Carcinoma); test: as above
Summary of the method: as §1

[13] = system: NKM-1 (Acute Myeloid Leukemia); test: as above
Summary of the method: as §1

[14] = system: OVTOKO (Ovarian Carcinoma); test: as above
Summary of the method: as §1

[15] = system: ES-2 (Ovarian Carcinoma); test: as above
Summary of the method: as §1

[16] = system: NCI-H1563 (Lung Adenocarcinoma); test: as above
Summary of the method: as §1

[17] = system: FLO-1 (Esophageal Adenocarcinoma); test: as above
Summary of the method: as §1

[18] = system: COLO-684 (Endometrial Carcinoma); test: as above
Summary of the method: as §1

[19] = system: CML-T1 (Chronic Myelogenous Leukemia); test: combination Emax (second highest fraction inhibited in the dose matrix, 72 h); higher = more inhibition; extreme values may be limits of the assay
Summary of the method: as §1

[20] = system: COLO-684 (Endometrial Carcinoma); test: as above
Summary of the method: as §1
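Wherever Bliss excess, mean over the matrix is given: after 72 h of two-drug dosing.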

| Compound | Bliss excess [1] | Bliss excess [2] | Bliss excess [3] | Bliss excess [4] | Bliss excess [5] | Bliss excess [6] | Bliss excess [7] | Bliss excess [8] | Bliss excess [9] | Bliss excess [10] | Bliss excess [11] | Bliss excess [12] | Bliss excess [13] | Bliss excess [14] | Bliss excess [15] | Bliss excess [16] | Bliss excess [17] | Bliss excess [18] | combination Emax [19] | combination Emax [20] |
| --- | --- | --- | --- | --- | --- | --- | --- | --- | --- | --- | --- | --- | --- | --- | --- | --- | --- | --- | --- | --- |
| COc1nnc2ccc(N3CCC(c4ccc(OCCN5CCN(C)C(=O)[C@H]5C)cc4)CC3)nn12 [AZD5153] + CC1(C)CCC(CN2CCN(c3ccc(C(=O)NS(=O)(=O)c4ccc(NCC5CCOCC5)c([N+](=O)[O-])c4)c(Oc4cnc5[nH]ccc5c4)c3)CC2)=C(c2ccc(Cl)cc2)C1 [Venetoclax] (first compound max 1 µM, 7x7, partner max 1 µM) | -0.0124 | -0.0648 | -0.0558 | -0.0256 | 0.0114 | -0.0474 | -0.0536 | -0.0297 | -0.0762 | -0.0793 | -0.0979 | -0.0807 | -0.0195 | -0.0682 | -0.0677 | -0.0496 | -0.005 | -0.0435 | 0.443 | 0.528 |
| Cc1cc2ncnn2cc1Nc1ncc2c(n1)n(C1CCOCC1)c(=O)n2C [AZD7648] + C=CCn1c(=O)c2cnc(Nc3ccc(N4CCN(C)CC4)cc3)nc2n1-c1cccc(C(C)(C)O)n1 [AZD1775] (first compound max 10 µM, partner max 1 µM) | 0.0302 | 0.0255 | -0.0629 | 0.001 | 0.0086 | -0.0103 | 0.0139 | 0.014 | 0.0502 | 0.0184 | -0.0616 | 0.0558 | -0.0556 | 0.0188 | 0.0248 | -0.0041 | -0.023 | -0.0713 | 0.941 | 0.722 |
| Cc1cc2ncnn2cc1Nc1ncc2c(n1)n(C1CCOCC1)c(=O)n2C [AZD7648] + C[C@@H]1COCCN1C2=NC(=NC(=C2)C3(CC3)[S@](=N)(=O)C)C4=C5C=CNC5=NC=C4 [AZD6738] (first compound max 10 µM, 7x7, partner max 10 µM) | 0.0015 | 0.0229 | 0.024 | 0.0354 | -0.0209 | -0.0367 | 0.0113 | 0.0093 | 0 | 0.0213 | -0.028 | 0.0133 | -0.0051 | 0.0118 | 0.0572 | 0.0367 | -0.0191 | -0.0527 | 0.936 | 0.764 |
| CN(CCO)CC[C@H](CSc1ccccc1)Nc1ccc(S(=O)(=O)NC(=O)c2ccc(N3CCC([C@@H](O)c4ccccc4-c4ccc(Cl)cc4)CC3)cc2)cc1S(=O)(=O)C(F)(F)F [AZD4320] + Cc1cc2ncnn2cc1Nc1ncc2c(n1)n(C1CCOCC1)c(=O)n2C [AZD7648] (first compound max 1 µM, 7x7, partner max 10 µM) | -0.018 | 0.0016 | -0.0186 | -0.0576 | 0.0193 | 0.004 | -0.0072 | -0.0391 | -0.0428 | -0.0225 | 0.0654 | -0.0575 | 0.0153 | -0.0393 | -0.0186 | -0.0322 | -0.0358 | -0.0221 | 0.99 | 0.197 |
| COc1cccc(OCCCN)c1-c1cc(Nc2cnc(C#N)cn2)n[nH]1 [Prexasertib] + C=CCn1c(=O)c2cnc(Nc3ccc(N4CCN(C)CC4)cc3)nc2n1-c1cccc(C(C)(C)O)n1 [AZD1775] (first compound max 1 µM, partner max 1 µM) | 0.0713 | 0.145 | 0.108 | 0.0105 | 0.063 | 0.0869 | 0.108 | 0.0485 | 0.0707 | 0.0874 | 0.0591 | -0.0189 | 0.056 | -0.0519 | 0.0006 | -0.0101 | 0.0488 | -0.0042 | 0.99 | 0.856 |
| Cc1nc(Nc2ncc(C(=O)Nc3c(C)cccc3Cl)s2)cc(N2CCN(CCO)CC2)n1 [Dasatinib] + CC(=O)Nc1cccc(-n2c(=O)n(C3CC3)c(=O)c3c(Nc4ccc(I)cc4F)n(C)c(=O)c(C)c32)c1 [Trametinib] (first compound max 2 µM, 7x7, partner max 1 µM) | -0.0178 | -0.0093 | -0.186 | 0.0492 | -0.0515 | -0.0565 | -0.0973 | 0.0137 | -0.0592 | -0.0729 | 0.073 | 0.0506 | -0.0196 | -0.139 | 0.0522 | -0.111 | 0.122 | -0.0482 | 0.966 | 0.0848 |
| Cc1c2c(nn1C)CSCc1cc(n(C)n1)CSc1cc(c3ccccc3c1)OCCCc1c(C(=O)O)n(C)c3c-2c(Cl)ccc13 [AZD5991] + C1CN(CCC1(C(=O)N[C@@H](CCO)C2=CC=C(C=C2)Cl)N)C3=NC=NC4=C3C=CN4 [Capivasertib] (first compound max 1 µM, 7x7, partner max 3 µM) | 0.0807 | -0.0091 | 0.0001 | 0.0258 | -0.0204 | 0.0083 | 0.0568 | 0.0092 | -0.0189 | 0.0065 | -0.0525 | -0.0881 | -0.0335 | -0.0287 | -0.0021 | 0.0837 | -0.0072 | -0.0411 | 0.0638 | 0.599 |
| CN(C)CCCOc1ccc(-c2ccc3ncc4c(c3c2)n(C2CCOCC2)c(=O)n4C)cn1 [AZD0156] + CCN(CCO)CCCOc1ccc2c(Nc3cc(CC(=O)Nc4cccc(F)c4)[nH]n3)ncnc2c1 [AZD2811] (first compound max 1 µM, 7x7, partner max 1 µM) | -0.0186 | -0.0198 | 0.0016 | -0.0159 | -0.0185 | 0.0302 | 0.0035 | 0.0015 | -0.0107 | 0.0006 | 0.0518 | -0.0461 | -0.031 | -0.0337 | -0.0163 | -0.006 | -0.0376 | -0.0036 | 0.259 | 0.201 |
| CS(=O)(=O)CCNCc1ccc(-c2ccc3ncnc(Nc4ccc(OCc5cccc(F)c5)c(Cl)c4)c3c2)o1 [Lapatinib] + C[C@@H](Oc1cc(-c2cnn(C3CCNCC3)c2)cnc1N)c1c(Cl)ccc(F)c1Cl [Crizotinib] (first compound max 10 µM, 7x7, partner max 10 µM) | -0.0515 | 0.0215 | -0.0535 | -0.0906 | -0.003 | -0.0386 | -0.0323 | -0.0393 | -0.0666 | -0.0359 | 0.005 | -0.031 | -0.0604 | -0.0437 | -0.0565 | 0.0087 | -0.0535 | -0.0364 | 0.965 | 0.78 |
| Cn1cnc2c(F)c(Nc3ccc(Br)cc3Cl)c(C(=O)NOCCO)cc21 [Selumetinib] + C[C@@H]1COCCN1C2=NC(=NC(=C2)C3(CC3)[S@](=N)(=O)C)C4=C5C=CNC5=NC=C4 [AZD6738] (first compound max 10 µM, 7x7, partner max 10 µM) | -0.033 | -0.0072 | 0.0152 | 0.0427 | 0.0024 | -0.0707 | -0.0293 | -0.0498 | -0.0735 | -0.0408 | -0.0129 | 0.0716 | -0.0748 | -0.0278 | 0.0006 | -0.0297 | -0.0137 | -0.0474 | 0.977 | 0.698 |
| CC(=O)Nc1cccc(-n2c(=O)n(C3CC3)c(=O)c3c(Nc4ccc(I)cc4F)n(C)c(=O)c(C)c32)c1 [Trametinib] + Cc1nc(-c2cn3c(n2)-c2ccc(-c4cnn(C(C)(C)C(N)=O)c4)cc2OCC3)n(C(C)C)n1 [Taselisib] (first compound max 1 µM, 7x7, partner max 10 µM) | 0.0424 | 0.113 | 0.0378 | 0.0177 | 0.194 | -0.052 | 0.076 | 0.171 | -0.0229 | 0.182 | 0.118 | 0.0654 | 0.255 | 0.0659 | 0.0915 | 0.103 | 0.047 | -0.0034 | 0.465 | 0.57 |
| CN(CCO)CC[C@H](CSc1ccccc1)Nc1ccc(S(=O)(=O)NC(=O)c2ccc(N3CCC([C@@H](O)c4ccccc4-c4ccc(Cl)cc4)CC3)cc2)cc1S(=O)(=O)C(F)(F)F [AZD4320] + CN(C)CCCOc1ccc(-c2ccc3ncc4c(c3c2)n(C2CCOCC2)c(=O)n4C)cn1 [AZD0156] (first compound max 1 µM, 7x7, partner max 1 µM) | -0.0256 | -0.0185 | -0.0408 | -0.0513 | -0.0015 | -0.0328 | 0.0144 | -0.0242 | -0.0503 | -0.0124 | -0.0756 | -0.0506 | -0.0871 | -0.0217 | -0.0259 | -0.0496 | 0.0007 | -0.0218 | 0.987 | 0.148 |
| Cn1cnc2c(F)c(Nc3ccc(Br)cc3Cl)c(C(=O)NOCCO)cc21 [Selumetinib] + C=CCn1c(=O)c2cnc(Nc3ccc(N4CCN(C)CC4)cc3)nc2n1-c1cccc(C(C)(C)O)n1 [AZD1775] (first compound max 10 µM, partner max 1 µM) | -0.0696 | 0.0338 | 0.0148 | 0.0171 | 0.036 | -0.0632 | -0.0372 | -0.0386 | -0.0543 | -0.0339 | -0.0049 | -0.046 | -0.0478 | -0.114 | 0.0334 | -0.0393 | -0.0108 | -0.0323 | 0.939 | 0.708 |
| COc1cccc(OCCCN)c1-c1cc(Nc2cnc(C#N)cn2)n[nH]1 [Prexasertib] + CCc1c2c(nc3ccc(O)cc13)-c1cc3c(c(=O)n1C2)COC(=O)[C@]3(O)CC [SN-38] (first compound max 1 µM, 7x7, partner max 0.3 µM) | -0.0634 | 0.0844 | 0.153 | -0.11 | -0.0197 | 0.0967 | 0.012 | 0.0254 | -0.0368 | 0.0907 | 0.0104 | -0.0333 | -0.0554 | -0.0192 | -0.0222 | -0.0111 | 0.0153 | 0.0379 | 1 | 0.956 |
